In patent US20170065663A1, “SUBSTANCE AND METHOD FOR TREATING INFLUENZA” (priority 2014, published 2017):
Like-named read-outs stand apart in the source and are kept apart here.

Assays:
[1] = Example I: degradation in IMDM media with 2.5% fetal bovine serum
ECE-1 = molecular target: T1, ECE-1 (Homo sapiens, UniProt P42892); conditions: cited from earlier work; for peptide present that is degraded: within 100 minutes of incubation
T1 sequence (P42892 1-770): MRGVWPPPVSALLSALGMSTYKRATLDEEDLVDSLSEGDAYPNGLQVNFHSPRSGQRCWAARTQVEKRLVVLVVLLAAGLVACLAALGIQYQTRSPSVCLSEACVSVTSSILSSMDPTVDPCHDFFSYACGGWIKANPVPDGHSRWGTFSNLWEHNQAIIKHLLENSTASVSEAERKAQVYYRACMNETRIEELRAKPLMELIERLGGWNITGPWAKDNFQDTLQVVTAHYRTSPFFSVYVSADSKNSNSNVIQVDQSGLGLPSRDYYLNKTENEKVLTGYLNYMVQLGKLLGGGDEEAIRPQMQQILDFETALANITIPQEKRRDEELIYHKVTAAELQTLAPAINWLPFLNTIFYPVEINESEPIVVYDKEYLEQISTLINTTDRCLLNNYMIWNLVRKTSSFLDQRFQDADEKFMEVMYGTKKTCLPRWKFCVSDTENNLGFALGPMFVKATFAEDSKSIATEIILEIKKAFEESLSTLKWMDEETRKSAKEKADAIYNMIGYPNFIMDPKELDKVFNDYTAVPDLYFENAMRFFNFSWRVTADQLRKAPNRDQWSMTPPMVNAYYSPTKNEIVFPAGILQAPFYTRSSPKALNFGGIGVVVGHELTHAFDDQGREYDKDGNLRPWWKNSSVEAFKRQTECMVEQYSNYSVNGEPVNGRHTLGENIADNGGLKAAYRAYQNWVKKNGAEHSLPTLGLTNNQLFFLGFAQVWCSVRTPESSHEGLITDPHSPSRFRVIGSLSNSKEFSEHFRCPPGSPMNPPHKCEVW

[2] = Example II: degradation of further Substance P analogs in IMDM media with 2.5% fetal bovine serum; conditions: 72 hours, present tense
Influenza/A/Wuhan/359/95 [3] = system: Influenza/A/Wuhan/359/95; set-up: species or system cotton rats (Sigmodon Hispidus); conditions: rat, in vivo
[4] = system: influenza virus subtypes H1N1, H3N2, H5N1 and H7N9; set-up: species or system mice, cotton rats and ferrets; conditions: in vivo
[5] = system: influenza virus subtypes H1N1, H3N2, H5N1 and H7N9; set-up: species or system mice, cotton rats and ferrets; conditions: in vivo; remark: listed apart in the source
Influenza/A/Wuhan/359/95 [6] = system: Influenza/A/Wuhan/359/95; set-up: species or system cotton rats (Sigmodon Hispidus); conditions: rat, in vivo; remark: listed apart in the source

Compound	remaining at 72 h [1] [%]	additional degradation after long incubation (ECE-1; 195 nM ECE-1, 1200 minutes post-incubation)	time for 50% of the peptide present to become degraded (ECE-1; 195 nM ECE-1) [min]	peptide present that is degraded (ECE-1; 195 nM ECE-1)	initial concentration recovered [2] [%]	body weight change following infection (Influenza/A/Wuhan/359/95 [3])	flu-related symptoms compared with placebo [4]	symptom reduction compared with subjects treated with an enumerated Substance P analog [4]	flu-related symptoms compared with placebo [5]	body weight loss (Influenza/A/Wuhan/359/95 [6])	pulmonary inflammation (alveolitis and interstitial inflammation) (Influenza/A/Wuhan/359/95 [6])
CC(C)C[C@H](NC(=O)CN(C)C(=O)[C@H](Cc1ccccc1)NC(=O)[C@H](Cc1ccccc1)NC(=O)[C@H](CCC(N)=O)NC(=O)[C@H](CCC(N)=O)NC(=O)[C@@H]1CCCN1C(=O)[C@H](CCCCN)NC(=O)[C@@H]1CCCN1C(=O)[C@@H](N)CCCNC(=N)N)C(=O)N[C@@H](CCS(C)(=O)=O)C(N)=O	59	no additional degradation occurs	~300	about 20%							
CSCC[C@H](NC(=O)[C@H](CC(C)C)NC(=O)CNC(=O)[C@H](Cc1ccccc1)NC(=O)[C@H](Cc1ccccc1)NC(=O)[C@H](CCC(N)=O)NC(=O)[C@H](CCC(N)=O)NC(=O)[C@@H]1CCCN1C(=O)[C@H](CCCCN)NC(=O)[C@@H]1CCCN1C(=O)[C@@H](N)CCCN=C(N)N)C(N)=O [Substance P]	24			~100%	24						
CCOC(=O)C1=C[C@@H](OC(CC)CC)[C@H](NC(C)=O)[C@@H](N)C1 [Tamiflu®, oseltamivir]						greater loss in body weight than mock-treated/infected animals	fewer flu-related symptoms	do not exhibit the symptom reduction produced in the subjects treated with one of the enumerated Substance P analogs	fewer flu-related symptoms	recover from weight-loss quicker than vehicle-treated controls	did not appear to affect pulmonary inflammation
